Data reported in EP0297661B1, “[(Bicyclic heterocyclyl)methyl and -hetero] substituted hexahydro-1H-azepines and pyrrolidines” (JANSSEN PHARMACEUTICA N.V., priority 1987, dated 1989).

The molecules below were run on compound 48/80-induced lethality (assay: Protection of rats from compound 48/80-induced lethality). Details: Rattus norvegicus; male Wistar rats; test compound subcutaneously or orally (route per compound not stated); one hour later compound 48/80 0.5 mg/kg intravenously; dose protecting 50% of animals, survival after 4 hours; read-out: compound 48/80 lethality test in rats-ED₅₀ in mg/kg body weight.
Format: in vivo
Text: Protection of rats from compound 48/80-induced lethality.
Compound 48/80, a mixture of oligomers obtained by condensation of 4-methoxy-N-methylbenzeneethanamine and formaldehyde has been described as a potent histamine releasing agent (Int. Arch. Allergy, 13, 336 (1958)). The protection from compound 48/80-induced lethal circulatory collapse appears to be simple way of evaluating quantitatively the antihistaminic activity of test compounds. Male rats of an inbred Wistar strain, weighing 240-260 g were used in the experiment. After overnight starvation the rats were transferred to conditioned laboratories (temp. = 21 ± 1°C, relative humidity = 65 ± 5%). The rats were treated subcutaneously or orally with a test compound or with the solvent (NaCl solution, 0.9%). One hour after treatment there was injected intravenously compound 48/80, freshly dissolved in water, at a dose of 0.5 mg/kg (0.2 ml/100 g of body weight). In control experiments, wherein 250 solvent-treated animals were injected with the standard dose of compound 48/80, not more than 2.8% of the animals survived after 4 hours. Survival after 4 hours is therefore considered to be a safe criterion of a protective effect of drug administration. Said ED₅₀-values are the values in mg/kg body weight at which the tested compounds protect 50% of the tested animals against […] lethality.

Structure (SMILES)	ED50 [mg/kg]
c1coc(Cn2c(NC3CCCNCC3)nc3cccnc32)c1 (centres unmarked) [compound 49, 3-(2-furanylmethyl)-N-(hexahydro-1H-azepin-4-yl)-3H-imidazo[4,5-b]pyridin2-amine]	0.04
COc1ccc(CCN2CCC(Nc3nc4cccnc4n3Cc3ccccn3)C2)cc1 (centres unmarked) [compound 61]	0.08
COc1ccc(CCN2CCCC(Nc3nc4cccnc4n3Cc3ccc(C)o3)CC2)cc1 (centres unmarked) [compound 68]	0.04
Cc1ccc(Cn2c(NC3CCN(CCc4c(C)nc5ccccn5c4=O)C3)nc3cccnc32)o1 (centres unmarked) [compound 94]	0.04
Cc1nc2ccccn2c(=O)c1CCN1CCC(Nc2nc3cccnc3n2Cc2cscn2)C1 (centres unmarked) [compound 95]	0.04
Cc1ccc(Cn2c(NC3CCN(CCc4c(C)nc5ccccn5c4=O)C3)nc3ccccc32)o1 (centres unmarked) [compound 96]	0.04
Cc1nc2n(c(=O)c1CCN1CCC(Nc3nc4cccnc4n3Cc3ccccn3)C1)CCCC2 (centres unmarked) [compound 99]	0.04
Cc1ccc(Cn2c(NC3CCN(CCc4c(C)nc5n(c4=O)CCCC5)C3)nc3ccccc32)o1 (centres unmarked) [compound 102]	0.04
O=c1oc2ccccc2cc1CCN1CCCC(Nc2nc3cccnc3n2Cc2ccco2)CC1 (centres unmarked) [compound 109, 3-[2-[4-[[3-(2-furanylmethyl)-3H-imidazo[4,5-b]pyridin-2-yl]-amino]hexahydro-1H-azepin-1-yl]ethyl]-2H-1-benzopyran-2-one]	0.04
O=c1[nH]c2ccccc2n1CCN1CCC(Nc2nc3ccccc3n2Cc2ccc(F)cc2)C1 (centres unmarked) [compound 125, 1-[2-[3-[[1-[(4-fluorophenyl)methyl]-1H-benzimidazol-2-yl]amino]-1-pyrrolidinyl]ethyl]-1,3-dihydro-2H-benzimidazol-2-one]	0.08
Fc1ccc(Cn2c(NC3CCN(CCNc4ncccn4)C3)nc3ccccc32)cc1 (centres unmarked) [compound 166, 1-[(4-fluorophenyl)methyl]-N-[1-[-(2-pyrimidinylamino)ethyl]-3-pyrrolidinyl]-1H-benzimidazol-2-amine]	0.08
Fc1ccc(Cn2c(NC3CCN(CCNc4nccs4)C3)nc3ccccc32)cc1 (centres unmarked) [compound 168, 1-[(4-fluorophenyl)methyl]-N[1-[2-(2-thiazolylamino)ethyl]-3-pyrrolidinyl]-1H-benzimidazol-2-amine]	0.08
c1csc(Cn2c(NC3CCN(CCNc4nc5cnccc5[nH]4)C3)nc3ccccc32)c1 (centres unmarked) [compound 186]	0.01
Cc1ccc(Cn2c(NC3CCN(CCNc4nc5cnccc5[nH]4)C3)nc3cccnc32)o1 (centres unmarked) [compound 187, N-[1-[2-[(1H-imidazo[4,5-c]pyridin-2-yl)amino]ethyl]-3-pyrrolidinyl]-3-[(5-methyl-2-furanyl)methyl]-3H-imidazo[4,5-b]pyridin-2-amine]	0.04
CNC(=O)NCCN1CCC(Nc2nc3ccccc3n2Cc2ccc(F)cc2)C1 (centres unmarked) [compound 188, N-[2-[3-[[1-[(4-fluorophenyl)methyl]-1H-benzimidazol-2-yl]amino]-1-pyrrolidinyl]ethyl]-N′-methylurea]	0.01
CN1CCCC(Nc2nc3cccnc3n2Cc2ccco2)CC1 (centres unmarked) [compound 196, 3-(2-furanylmethyl)-N-(hexahydro-1-methyl-1H-azepin-4-yl)-3H-imidazo[4,5-b]-pyridin-2-amine]	0.02
Cc1ccc(Cn2c(NC3CCCN(C)CC3)nc3ccccc32)o1 (centres unmarked) [compound 198, N-(hexahydro-1-methyl-1H-azepin-4-yl)-1-[(5-methyl-2-furanyl)methyl]-1H-benzimidazol-2-amine]	0.04
CC(C)N1CCC(Nc2nc3ccccc3n2Cc2ccc(F)cc2)C1 (centres unmarked) [compound 204, 1-[(4-fluorophenyl)methyl]-N-[1-(1-methylethyl)-3-pyrrolidinyl]-1H-benzimidazol-2-amine]	0.04
Cc1ccc(Cn2c(NC3CCCN(C)CC3)nc3cccnc32)o1 (centres unmarked) [compound 207, N-(hexahydro-1-methyl-1H-azepin-4-yl)-3-[(5-methyl-2-furanyl)methyl]-3H-imidazo[4,5-b]pyridin-2-amine]	0.01
Cc1ccc(Cn2c(NC3CCCN(CCO)CC3)nc3ccccc32)o1 (centres unmarked) [compound 211, hexahydro-4-[[1-[(5-methyl-2-furanyl)methyl]-1H-benzimidazol-2-yl]amino]-1H-azepine-1-ethanol]	0.04
